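These data come from cells grown in 96-well plates and exposed to compound for 48 hours at five concentrations. The concentration for 50% growth inhibition is given as GI50.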 Activity calls are given as the source filed them. Cut-off read from the data, not from the text of the source: active = GI50 up to about 1.1 µM and inactive = higher.
Tests used:
Test in all cases: growth of human tumour cells (NCI), 48 h
[1] = test system: EKVX
[2] = test system: CAKI-1
[3] = test system: CCRF-CEM
[4] = test system: T47D
[5] = test system: HT-29
[6] = test system: LOX IMVI
[7] = test system: MDA-MB-231
[8] = test system: SF-295
[9] = test system: SNB-75
[10] = test system: OVCAR-4
[11] = test system: ACHN
[12] = test system: MCF7
[13] = test system: TK-10
[14] = test system: A498
[15] = test system: HOP-92
[16] = test system: BT-549
[17] = test system: 786-0
[18] = test system: SK-MEL-28
[19] = test system: MOLT-4
[20] = test system: COLO 205

CO[C@H]1O[C@@H]2CO[C@@H](c3ccccc3)O[C@H]2[C@@H]2CC=CCC[C@]12O
GI50 [1]: 36.8 µM (inactive) | GI50 [2]: > 100 µM (inactive) | GI50 [3]: 31 µM (inactive) | GI50 [4]: 94 µM (inactive) | GI50 [5]: 40 µM (inactive) | GI50 [6]: 74.3 µM (inactive) | GI50 [7]: > 100 µM (inactive) | GI50 [8]: 74.5 µM (inactive) | GI50 [9]: > 100 µM (inactive) | GI50 [10]: 57.3 µM (inactive) | GI50 [11]: 76.4 µM (inactive) | GI50 [12]: 42.6 µM (inactive) | GI50 [13]: 93.5 µM (inactive) | GI50 [14]: 32.1 µM (inactive) | GI50 [15]: 49.8 µM (inactive) | GI50 [16]: 24.6 µM (inactive) | GI50 [17]: 61.2 µM (inactive) | GI50 [18]: > 100 µM (inactive) | GI50 [19]: 25.1 µM (inactive) | GI50 [20]: 48.5 µM (inactive)

Cc1ccc(I)cc1N=C=S
GI50 [1]: 23.7 µM (inactive) | GI50 [2]: 24.9 µM (inactive) | GI50 [3]: 21.8 µM (inactive) | GI50 [4]: 16.1 µM (inactive) | GI50 [5]: 23.5 µM (inactive) | GI50 [6]: 22.2 µM (inactive) | GI50 [7]: 28.2 µM (inactive) | GI50 [8]: 26.9 µM (inactive) | GI50 [9]: 21.2 µM (inactive) | GI50 [10]: 26.9 µM (inactive) | GI50 [11]: 22.8 µM (inactive) | GI50 [12]: 21.2 µM (inactive) | GI50 [13]: 36 µM (inactive) | GI50 [14]: 21.2 µM (inactive) | GI50 [15]: 43.4 µM (inactive) | GI50 [16]: 13.3 µM (inactive) | GI50 [17]: 23.6 µM (inactive) | GI50 [18]: 20.2 µM (inactive) | GI50 [19]: 20.2 µM (inactive) | GI50 [20]: 18.2 µM (inactive)

O=C1C=CC(=O)C(CNc2ccc(C(=O)OC34CC5CC(CC(C5)C3)C4)cc2)=C1Br
GI50 [1]: 6.46 µM (inactive) | GI50 [2]: 3.52 µM (inactive) | GI50 [3]: 1.99 µM (inactive) | GI50 [4]: 3.33 µM (inactive) | GI50 [5]: 5.01 µM (inactive) | GI50 [6]: 9.48 µM (inactive) | GI50 [7]: 10.2 µM (inactive) | GI50 [8]: 14.1 µM (inactive) | GI50 [9]: 6.15 µM (inactive) | GI50 [10]: 5.19 µM (inactive) | GI50 [11]: 14.6 µM (inactive) | GI50 [12]: 15.9 µM (inactive) | GI50 [13]: 13.9 µM (inactive) | GI50 [14]: 17.9 µM (inactive) | GI50 [15]: 2.34 µM (inactive) | GI50 [16]: 5.33 µM (inactive) | GI50 [17]: 13.2 µM (inactive) | GI50 [19]: 2.24 µM (inactive) | GI50 [20]: 7.29 µM (inactive)

COC(c1ccsc1)C(C#N)(C#N)/N=C/c1ccsc1 (centres undefined)
GI50 [1]: 14.2 µM (inactive) | GI50 [2]: 4.68 µM (inactive) | GI50 [3]: 5.96 µM (inactive) | GI50 [4]: 13.9 µM (inactive) | GI50 [5]: 12.5 µM (inactive) | GI50 [6]: 10.3 µM (inactive) | GI50 [7]: 7.4 µM (inactive) | GI50 [8]: 18.1 µM (inactive) | GI50 [9]: 15.1 µM (inactive) | GI50 [10]: 20.9 µM (inactive) | GI50 [11]: 18.7 µM (inactive) | GI50 [12]: 2.18 µM (inactive) | GI50 [13]: 17.7 µM (inactive) | GI50 [14]: 14.9 µM (inactive) | GI50 [15]: 12 µM (inactive) | GI50 [16]: 17 µM (inactive) | GI50 [17]: 17.3 µM (inactive) | GI50 [18]: 18.6 µM (inactive) | GI50 [19]: 13.9 µM (inactive) | GI50 [20]: 16.5 µM (inactive)

C/C(=N\NC(=S)NC1CCCC1)c1ccccn1
GI50 [1]: < 0.01 µM (active) | GI50 [2]: < 0.01 µM (active) | GI50 [3]: < 0.01 µM (active) | GI50 [4]: < 0.01 µM (active) | GI50 [5]: < 0.01 µM (active) | GI50 [6]: < 0.01 µM (active) | GI50 [7]: 1.08 µM (active) | GI50 [8]: 0.223 µM (active) | GI50 [9]: 2.25 µM (inactive) | GI50 [10]: 0.135 µM (active) | GI50 [11]: < 0.01 µM (active) | GI50 [12]: < 0.01 µM (active) | GI50 [13]: 0.202 µM (active) | GI50 [14]: 0.65 µM (active) | GI50 [15]: 0.0718 µM (active) | GI50 [16]: 0.472 µM (active) | GI50 [17]: 0.0467 µM (active) | GI50 [18]: 3.28 µM (inactive) | GI50 [19]: < 0.01 µM (active) | GI50 [20]: < 0.01 µM (active)

N=C(N)N/N=C/c1c(-c2ccc([N+](=O)[O-])cc2)nc2n1CCS2
GI50 [1]: 18.3 µM (inactive) | GI50 [2]: 17.5 µM (inactive) | GI50 [3]: 1.89 µM (inactive) | GI50 [4]: 5.13 µM (inactive) | GI50 [5]: 14.5 µM (inactive) | GI50 [6]: 8.26 µM (inactive) | GI50 [7]: 6.18 µM (inactive) | GI50 [8]: 18 µM (inactive) | GI50 [9]: 6.04 µM (inactive) | GI50 [10]: 7.85 µM (inactive) | GI50 [11]: 16.5 µM (inactive) | GI50 [12]: 6.9 µM (inactive) | GI50 [13]: 17.4 µM (inactive) | GI50 [14]: 20.4 µM (inactive) | GI50 [15]: 18.4 µM (inactive) | GI50 [16]: 17.1 µM (inactive) | GI50 [17]: 6.67 µM (inactive) | GI50 [18]: 17.3 µM (inactive) | GI50 [19]: 3.24 µM (inactive) | GI50 [20]: 2.76 µM (inactive)

COC(=O)CCC(=O)NC1=C(Nc2ccc(OC)cc2)C(=O)c2ccccc2C1=O
GI50 [1]: 17.7 µM (inactive) | GI50 [2]: 16.9 µM (inactive) | GI50 [3]: 26.1 µM (inactive) | GI50 [4]: 14.6 µM (inactive) | GI50 [5]: 12.6 µM (inactive) | GI50 [6]: 4.15 µM (inactive) | GI50 [7]: 10.7 µM (inactive) | GI50 [8]: 13 µM (inactive) | GI50 [9]: 2.52 µM (inactive) | GI50 [10]: 11.8 µM (inactive) | GI50 [11]: 15.4 µM (inactive) | GI50 [12]: 4.11 µM (inactive) | GI50 [13]: 32.7 µM (inactive) | GI50 [14]: 19.2 µM (inactive) | GI50 [15]: 8.69 µM (inactive) | GI50 [16]: 15.4 µM (inactive) | GI50 [17]: 17.9 µM (inactive) | GI50 [18]: 17.2 µM (inactive) | GI50 [19]: 15.7 µM (inactive) | GI50 [20]: 14.5 µM (inactive)
